Results: patent US20130213851A1, “OMEGA 3 FATTY ACID FORMULATIONS” (CENESTRA LLC., priority 2005, published 2013)

Tested on: Attention Deficit Hyperactivity Disorder (ADHD)-combined type, and Tic Disorder
Experiment: Case report: cognition, attention and tics after OMAX3 augmentation
Format: in vivo, human
Conditions: for treatment response of tics: past use
Experimental: […] […] Past medication trials included: Strattera (atomoextine), Adderall, Adderall XR, methylphenidate, Tenex (guanfacine), and Concerta. His most recent medication treatment was with Concerta 54 mg per day.
R's Tic Disorder was comprised of both vocal and motor tics in the form of random verbalizations or screeching sounds, as well as either a facial and neck twitch.
The patient was treated with OMAX3, 2 capsules per day (1125 mg EPA, 275 mg DHA, 1500 mg Total Omega-3 fatty acids) for the purpose of enhancing their attention and cognitive function.

Compound | treatment response of tics (patient history) | tolerability (past use for tics, patient history) | inattention symptoms (patient's report at baseline, Concerta 54 mg per day, before OMAX3)
Cc1nc2n(c(=O)c1CCN1CCC(c3noc4cc(F)ccc34)CC1)CCCC2 [Risperdal, risperidone] | only a partial treatment response |  | 
N=C(N)NC(=O)Cc1c(Cl)cccc1Cl [Tenex, guanfacine] | only a partial treatment response | poor tolerability | 
COC(=O)C(c1ccccc1)C1CCCCN1 (stereo not shown) [Concerta] |  |  | sufficiently improved
